Test results reported in ChEMBL document CHEMBL3301562, “MMV Box screening against Plasmodium falciparum protein kinases and aminoacyl tRNA synthetases”.
pIC50: −log10 of the molar value.

How the values were obtained:
Format in all cases: functional
[1] = target: T1, Mitogen-activated protein kinase (Plasmodium falciparum, UniProt Q25917); assay: Final concentrations were 1 uM ATP, 0.5 mM DTT, 1 mM MgCl2, 0.5 mg/mL BSA, and 10 ug/ml MAP2 in a buffer of 50 mM HEPES (pH 7.0). 0.5 mg/mL histone III-S served as the substrate (13); 100 uM AMP-PNP, an ATP analog, was used as a control inhibitor. Incubation time was 4 hours.
T1 sequence (Q25917 whole entry): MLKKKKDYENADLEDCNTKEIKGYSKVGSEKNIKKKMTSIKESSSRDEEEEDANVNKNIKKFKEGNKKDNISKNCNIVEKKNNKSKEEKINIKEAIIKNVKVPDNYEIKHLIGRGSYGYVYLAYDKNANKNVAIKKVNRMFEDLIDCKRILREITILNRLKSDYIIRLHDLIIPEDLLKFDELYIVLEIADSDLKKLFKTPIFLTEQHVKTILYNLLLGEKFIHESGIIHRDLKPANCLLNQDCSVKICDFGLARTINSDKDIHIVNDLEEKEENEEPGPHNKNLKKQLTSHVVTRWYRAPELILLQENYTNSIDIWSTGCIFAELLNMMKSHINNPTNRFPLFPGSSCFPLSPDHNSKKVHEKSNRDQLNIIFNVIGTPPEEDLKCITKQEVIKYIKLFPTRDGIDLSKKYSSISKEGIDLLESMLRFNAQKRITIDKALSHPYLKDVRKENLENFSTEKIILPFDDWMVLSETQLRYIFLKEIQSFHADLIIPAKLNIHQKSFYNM

Lysine--tRNA ligase = Lysine--tRNA ligase (Plasmodium falciparum (isolate 3D7), UniProt Q8IDJ8); assay: MMV: KRS recombinant Plasmodium falciparum Lysyl-tRNA-synthetase, assay with yeast tRNA, ATP, and lysine and 3 uM MMV malaria box compound, assay read out with kinase glo as % inhibition.
[2] = target: T2, Cdk-related protein kinase 6 (Plasmodium falciparum, UniProt O77239); assay: Final concentrations were 1.5 uM ATP, 5 mM MnCl2, and 15 ug/ml PK6 in a buffer of 100 mM Tris-HCl (pH 7.5). 50 ug/mL MBP was provided as the substrate; 10 uM staurosporine was used as a control inhibitor. Incubation time was 3 hours and 40 minutes.The catalytic activity of each kinase was considered proportional to ATP consumed, as determined from measurements of residual [ATP] with the luciferase-based reagent Kinase-Glo (Promega) following incubation. Luminescence (proportional to residual [ATP]) was measured on the plate readers FLx800 (BioTek Instruments, Winooski, VT, USA) and MicroBeta2.
T2 sequence (O77239 whole entry): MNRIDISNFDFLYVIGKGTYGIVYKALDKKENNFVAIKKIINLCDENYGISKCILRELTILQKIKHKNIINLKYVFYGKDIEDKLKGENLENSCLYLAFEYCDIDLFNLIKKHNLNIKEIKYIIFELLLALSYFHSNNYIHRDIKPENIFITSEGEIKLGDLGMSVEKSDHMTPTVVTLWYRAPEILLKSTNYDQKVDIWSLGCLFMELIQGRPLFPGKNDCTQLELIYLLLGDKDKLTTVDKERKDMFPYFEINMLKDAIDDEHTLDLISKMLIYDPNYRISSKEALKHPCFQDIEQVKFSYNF

[3] = target: T3, Putative uncharacterized protein pk7 (Plasmodium falciparum, UniProt O96214); assay: Final concentrations were 1 uM ATP, 2 mM DTT, 20 mM MgCl2, 2 mM MnCl2, 0.01% BSA, and 6 ug/ml PK7, in a buffer of 20 mM Tris-HCl (pH 7.5). The enzyme itself was the only substrate present (since autophosphorylation occurs); 100 uM 1NA-PP1 was used as a control inhibitor. Incubation time was 3 hours.
T3 sequence (O96214 whole entry): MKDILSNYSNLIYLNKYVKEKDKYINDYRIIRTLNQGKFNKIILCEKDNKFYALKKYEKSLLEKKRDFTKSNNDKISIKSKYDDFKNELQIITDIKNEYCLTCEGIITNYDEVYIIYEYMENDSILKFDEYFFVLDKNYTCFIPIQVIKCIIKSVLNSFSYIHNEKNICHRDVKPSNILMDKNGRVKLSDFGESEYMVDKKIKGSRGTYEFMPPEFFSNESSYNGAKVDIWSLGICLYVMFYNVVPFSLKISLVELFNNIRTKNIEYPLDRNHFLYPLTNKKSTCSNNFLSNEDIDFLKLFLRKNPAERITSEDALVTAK

Proline--tRNA ligase = target: T4, Proline--tRNA ligase (Plasmodium falciparum (isolate 3D7), UniProt Q8I5R7); assay: MMV: ProRS recombinant Plasmodium falciparum Prolyl-tRNA-synthetase, assay with yeast tRNA, ATP, and proline and 3 uM MMV malaria box compound, assay read out with kinase glo as % inhibition.
T4 sequence (Q8I5R7 whole entry): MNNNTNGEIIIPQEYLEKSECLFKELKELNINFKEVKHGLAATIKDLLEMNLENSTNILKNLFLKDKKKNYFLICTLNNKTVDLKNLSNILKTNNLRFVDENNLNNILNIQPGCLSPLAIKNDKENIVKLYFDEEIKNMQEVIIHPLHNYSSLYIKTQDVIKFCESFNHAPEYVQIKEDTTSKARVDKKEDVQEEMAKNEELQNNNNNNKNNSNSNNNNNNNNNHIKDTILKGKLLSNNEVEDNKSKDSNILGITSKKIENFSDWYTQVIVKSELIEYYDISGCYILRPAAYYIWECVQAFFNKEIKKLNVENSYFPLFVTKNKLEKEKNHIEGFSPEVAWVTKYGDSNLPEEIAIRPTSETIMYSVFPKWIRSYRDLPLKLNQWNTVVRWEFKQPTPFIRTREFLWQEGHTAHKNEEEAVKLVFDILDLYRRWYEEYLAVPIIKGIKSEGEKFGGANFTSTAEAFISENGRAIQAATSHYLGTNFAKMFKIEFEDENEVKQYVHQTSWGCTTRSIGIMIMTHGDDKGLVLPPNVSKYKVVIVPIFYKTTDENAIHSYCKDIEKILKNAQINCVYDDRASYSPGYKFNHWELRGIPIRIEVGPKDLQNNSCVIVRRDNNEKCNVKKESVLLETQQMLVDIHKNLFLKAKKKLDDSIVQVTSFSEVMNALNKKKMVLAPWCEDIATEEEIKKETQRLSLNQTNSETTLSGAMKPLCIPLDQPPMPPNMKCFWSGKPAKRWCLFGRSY

[4] = target: T5, Calcium-dependent protein kinase 4 (Plasmodium falciparum (isolate 3D7), UniProt Q8IBS5); assay: MMV: CDPK4 Protein kinase inhibition assay using recombinant PfCDPK4, syntide2 peptide substrate, ATP and KinaseGlo to measure % inhibition at 1 uM MMV box compound.
T5 sequence (Q8IBS5 whole entry): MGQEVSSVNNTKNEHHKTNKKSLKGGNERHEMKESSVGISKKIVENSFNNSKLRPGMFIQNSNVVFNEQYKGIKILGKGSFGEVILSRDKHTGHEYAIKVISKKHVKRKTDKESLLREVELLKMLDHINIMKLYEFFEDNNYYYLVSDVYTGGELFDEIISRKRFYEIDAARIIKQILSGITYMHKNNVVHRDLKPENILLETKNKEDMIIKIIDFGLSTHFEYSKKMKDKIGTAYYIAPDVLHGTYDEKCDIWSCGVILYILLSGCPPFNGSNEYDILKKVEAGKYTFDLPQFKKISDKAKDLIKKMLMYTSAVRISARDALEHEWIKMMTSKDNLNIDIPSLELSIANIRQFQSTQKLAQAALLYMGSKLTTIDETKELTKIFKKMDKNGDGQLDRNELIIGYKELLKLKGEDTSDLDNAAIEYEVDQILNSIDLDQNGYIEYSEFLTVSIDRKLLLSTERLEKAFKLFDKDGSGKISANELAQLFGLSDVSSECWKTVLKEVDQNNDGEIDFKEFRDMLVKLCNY

[5] = target: Calcium-dependent protein kinase 1 (Plasmodium falciparum, UniProt P62344); assay: MMV: CDPK1 Protein kinase inhibition assay using recombinant PfCDPK1, syntide 2 peptide substrate, ATP and KinaseGlo to measure % inhibition at 1 uM MMV box compound.
Calcium-dependent protein kinase 1, sequence (P62344 whole entry): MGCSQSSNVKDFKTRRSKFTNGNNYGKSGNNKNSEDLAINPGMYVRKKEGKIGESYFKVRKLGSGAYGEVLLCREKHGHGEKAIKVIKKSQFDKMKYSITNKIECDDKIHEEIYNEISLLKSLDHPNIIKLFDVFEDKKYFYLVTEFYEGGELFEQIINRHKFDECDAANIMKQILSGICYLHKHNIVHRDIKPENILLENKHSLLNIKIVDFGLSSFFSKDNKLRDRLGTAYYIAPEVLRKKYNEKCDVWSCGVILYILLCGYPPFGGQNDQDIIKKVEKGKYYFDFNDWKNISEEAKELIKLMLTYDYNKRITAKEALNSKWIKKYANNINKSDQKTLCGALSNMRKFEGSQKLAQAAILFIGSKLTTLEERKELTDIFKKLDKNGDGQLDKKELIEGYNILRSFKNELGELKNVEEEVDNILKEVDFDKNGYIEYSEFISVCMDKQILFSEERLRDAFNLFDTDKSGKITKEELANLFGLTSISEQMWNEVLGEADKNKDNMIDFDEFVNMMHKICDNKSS

Lysine--tRNA ligase, sequence (Q8IDJ8 whole entry): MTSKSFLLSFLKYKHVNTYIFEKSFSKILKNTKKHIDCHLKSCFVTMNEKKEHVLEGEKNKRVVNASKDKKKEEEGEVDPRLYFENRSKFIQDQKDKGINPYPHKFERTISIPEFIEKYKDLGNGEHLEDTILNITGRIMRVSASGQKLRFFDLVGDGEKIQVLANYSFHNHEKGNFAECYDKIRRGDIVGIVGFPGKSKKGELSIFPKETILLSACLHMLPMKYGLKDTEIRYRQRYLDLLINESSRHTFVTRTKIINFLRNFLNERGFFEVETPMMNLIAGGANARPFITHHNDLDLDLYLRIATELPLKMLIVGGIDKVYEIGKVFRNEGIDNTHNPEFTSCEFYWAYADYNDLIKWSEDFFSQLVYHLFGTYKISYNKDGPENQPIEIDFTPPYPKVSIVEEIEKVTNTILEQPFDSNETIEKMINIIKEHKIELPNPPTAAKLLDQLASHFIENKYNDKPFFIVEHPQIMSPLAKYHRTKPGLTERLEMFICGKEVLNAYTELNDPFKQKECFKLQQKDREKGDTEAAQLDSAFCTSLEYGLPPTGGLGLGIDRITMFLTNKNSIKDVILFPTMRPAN

| SMILES | pIC50 [1] | pIC50 (Lysine--tRNA ligase) | pIC50 [2] | pIC50 [3] | pIC50 (Proline--tRNA ligase) | pIC50 [4] | pIC50 [5] |
| --- | --- | --- | --- | --- | --- | --- | --- |
| CCN1CCCC1CNc1[nH]cnc2c3cc(Cl)ccc3nc1-2 (configuration not stated) | < 6.00 | < 5.60 | < 6.00 | < 6.00 | < 5.60 | < 6.00 | < 6.00 |
| C[n+]1c2ccccc2nc2ccc(NCCO)cc21 | < 6.00 | < 5.60 | < 6.00 | < 6.00 | < 5.60 | < 6.00 | < 6.00 |
| Cc1ccc(-c2cc3c(nn2)-c2ccccc2C3=O)cc1 | < 6.00 | < 5.60 | < 6.00 | < 6.00 | < 5.60 | < 6.00 | < 6.00 |
| COc1ccc(-n2ccnc2SCC(=O)Nc2cc(C)ccc2C)c(OC)c1 | < 6.00 | < 5.60 | < 6.00 | < 6.00 | < 5.60 | < 6.00 | < 6.00 |
| CCOc1cc2c(cc1OCC)C(c1cc(OC)c(O)cc1Cl)NCC2 (configuration not stated) | < 6.00 | < 5.60 | < 6.00 | < 6.00 | < 5.60 | < 6.00 | < 6.00 |
| COc1cccc(C=Cc2nc(=O)c3ccccc3o2)c1OC | < 6.00 | < 5.60 | < 6.00 | < 6.00 | < 5.60 | < 6.00 | < 6.00 |
| COc1ccc(C(=O)Nc2nonc2-c2ccc(OC)c(OC)c2)cc1Cl | < 6.00 | < 5.60 | < 6.00 | < 6.00 | < 5.60 | < 6.00 | < 6.00 |
| COc1ccc2c(c1)OC(O)(C(F)(F)C(F)(F)F)CC2=O (configuration not stated) | < 6.00 | < 5.60 | < 6.00 | < 6.00 | < 5.60 | < 6.00 | < 6.00 |
| CCOc1cc(Cl)c(C(C)NC(=O)c2ccccc2)cc1OCC (configuration not stated) | < 6.00 | < 5.60 | < 6.00 | < 6.00 | < 5.60 | < 6.00 | < 6.00 |
| c1ccc2cc3c(Nc4ccc(N5CCOCC5)cc4)ccnc3cc2c1 | < 6.00 | < 5.60 | < 6.00 | < 6.00 | < 5.60 | < 6.00 | < 6.00 |
| CCOC(=O)c1cn(CC)c2cc(N3CCCCC3)c(F)cc2c1=O | < 6.00 | < 5.60 | < 6.00 | < 6.00 | < 5.60 | < 6.00 | < 6.00 |
| CCn1c(SCC(=O)Nc2cc(C(F)(F)F)ccc2Cl)nc2ccccc2c1=O | < 6.00 | < 5.60 | < 6.00 | < 6.00 | < 5.60 | < 6.00 | < 6.00 |
| Cc1ccc(Cn2c(N3CCC(C(=O)NCc4cccs4)CC3)nc3ccccc32)cc1 | < 6.00 | < 5.60 | < 6.00 | < 6.00 | < 5.60 | < 6.00 | < 6.00 |
| O=C(Nc1ccc(Cl)cc1C(=O)Nc1ccncc1)c1ccc(Cl)cc1Cl | < 6.00 | < 5.60 | < 6.00 | < 6.00 | < 5.60 | < 6.00 | < 6.00 |
| CCOc1ccc(-c2nonc2NC(=O)c2cccc(C)c2)cc1OCC | < 6.00 | < 5.60 | < 6.00 | < 6.00 | < 5.60 | < 6.00 | < 6.00 |
| CCOC(=O)c1ccc2[nH]c(-c3ccccc3)cc(=O)c2c1 | < 6.00 | < 5.60 | < 6.00 | < 6.00 | < 5.60 | < 6.00 | < 6.00 |
| Cc1cc(Nc2ccc(Cl)cc2)n2nc(C(F)(F)F)nc2n1 | < 6.00 | < 5.60 | < 6.00 | < 6.00 | < 5.60 | < 6.00 | < 6.00 |
| CCCCCCOC(=O)C1=C(C)NC(=O)NC1c1ccccc1F (configuration not stated) | < 6.00 | < 5.60 | < 6.00 | < 6.00 | < 5.60 | < 6.00 | < 6.00 |
| Cc1ccc(Nc2nc(NCCO)c3ccccc3n2)cc1C | < 6.00 | < 5.60 | < 6.00 | < 6.00 | < 5.60 | < 6.00 | < 6.00 |
| CC1CCCCN1CCCNC(=O)c1ccc2c(c1)sc1nc(-c3ccc(F)cc3)cn12 (configuration not stated) | < 6.00 | < 5.60 | < 6.00 | < 6.00 | < 5.60 | < 6.00 | < 6.00 |
| COc1ccc(NC(=O)C2c3ccccc3C(=O)N(CC(C)C)C2c2cccs2)cc1 (configuration not stated) | < 6.00 | < 5.60 | < 6.00 | < 6.00 | < 5.60 | < 6.00 | < 6.00 |
